In patent publication US12612403B2, “Nitrogen-containing heterocyclic derivative inhibitor, and preparation method therefor and use thereof” (SHANGHAI HANSOH BIOMEDICAL CO., LTD., priority 2024, dated 2026) one finds IC50 data, which are given here for 34 molecules.

This test has as its target T1, PCSK9 protein (Homo sapiens, UniProt Q8NBP7).
T1 construct: purchased Sino biology (Sino Biological) 29698-H08H
The test can be described thus: Binding ability to PCSK9 protein (HTRF). Conditions: PCSK9-His, Alexa Fluor 647 probe compound. The method, then: 1. Experimental objective: To detect the action of compounds to bind PCSK9 protein by an HTRF method.
3. Experimental data processing method: Four-parameter log(inhibitor) vs. response—Variable slope (four parameters) in XLit was used to perform non-linear fitting of the compound concentration and the corresponding inhibition rate, and IC50 was calculated.
A general note: TR-FRET usually uses a lanthanide donor and a delayed reading to cut background.

SMILES strings stand for the structures.

T1 sequence (Q8NBP7 153-692): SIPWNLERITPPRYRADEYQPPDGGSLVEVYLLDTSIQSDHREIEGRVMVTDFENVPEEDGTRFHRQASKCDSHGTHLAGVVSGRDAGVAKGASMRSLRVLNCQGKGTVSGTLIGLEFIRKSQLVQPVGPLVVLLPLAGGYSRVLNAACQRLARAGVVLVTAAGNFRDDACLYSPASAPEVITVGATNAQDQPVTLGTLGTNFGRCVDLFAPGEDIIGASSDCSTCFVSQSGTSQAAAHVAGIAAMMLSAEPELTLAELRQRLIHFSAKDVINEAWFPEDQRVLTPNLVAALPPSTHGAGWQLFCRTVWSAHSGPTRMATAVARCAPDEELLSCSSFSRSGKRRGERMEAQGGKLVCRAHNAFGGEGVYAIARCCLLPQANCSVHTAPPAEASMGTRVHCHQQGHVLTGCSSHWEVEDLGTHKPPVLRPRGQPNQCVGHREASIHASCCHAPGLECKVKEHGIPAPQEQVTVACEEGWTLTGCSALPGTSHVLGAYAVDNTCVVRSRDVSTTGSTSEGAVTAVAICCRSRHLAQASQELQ

Regarding `O=c1ccncn1-c1ccc(N[C@H]2CC[C@H](Nc3nc4cc(F)ccn4n3)C2)nc1` [Example 28, 3-(6-(((1S,3S)-3-((7-fluoro-[1,2,4]triazolo[1,5-a]pyridin-2-yl)amino)cyclopentyl)amino)pyridin-3-yl)pyrimidin-4(3H)-one], the IC50 was 17.4 nM.

The molecule `O=c1cnccn1-c1ccc(N[C@H]2CC[C@H](Nc3nc4cc(F)ccn4n3)C2)nc1` [Example 29, 1-(6-(((1S,3S)-3-((7-fluoro-[1,2,4]triazolo[1,5-a]pyridin-2-yl)amino)cyclopentyl)amino)pyridin-3-yl)pyrazin-2(1H)-one] had an IC50 of 18.4 nM.

Regarding `O=C1COCCN1c1ccc(N[C@H]2CC[C@H](Nc3nc4cc(F)ccn4n3)C2)nc1` [Example 53, 4-(6-(((1S,3S)-3-((7-fluoro-[1,2,4]triazolo[1,5-a]pyridin-2-yl)amino)cyclopentyl)amino)pyridin-3-yl)morpholin-3-one], the concentration for half-maximal inhibition (IC50) came out at 43.6 nM.

As to `O=C1c2ncc(F)cc2CN1c1ccc(N[C@H]2CC[C@H](Nc3nc4cc(OC(F)F)ccn4n3)C2)nc1` [Example 98], the concentration for half-maximal inhibition (IC50) is 6.6 nM.

Turning to `O=c1nc(O)ccn1-c1ccc(N[C@H]2CC[C@H](Nc3nc4cc(F)ccn4n3)C2)nc1` [Example 102], the IC50 is 13.3 nM.

The molecule `O=c1nc(O)ccn1-c1ccc(N[C@H]2CC[C@H](Nc3nc4cc(C(F)F)ccn4n3)C2)nc1` [Example 104] returned an IC50 of 13.9 nM.

Take `O=c1nc(O)ccn1-c1ccc(N[C@H]2CC[C@H](Nc3nc4cc(OC(F)F)ccn4n3)C2)nc1` [Example 105]: the half-inhibitory concentration (IC50) is 9.1 nM.

`Cc1ccn2nc(N[C@H]3CC[C@H](Nc4ccc(-n5ccc(O)nc5=O)cn4)C3)nc2c1` [Example 106] came in with an IC50 of 10.6 nM.

As for `O=c1nc(O)ccn1-c1ccc(N[C@H]2CC[C@H](Nc3nc4cc(C5CC5)ccn4n3)C2)nc1` [Example 107], the IC50 was 21.3 nM.

The molecule `O=c1nc(O)c(C(F)(F)F)cn1-c1ccc(N[C@H]2CC[C@H](Nc3nc4cc(C(F)(F)F)ccn4n3)C2)nc1` [Example 119] gave a 50% inhibitory concentration (IC50) of 23 nM.

On to `Cc1cnc2c(c1)C(=O)N(c1ccc(N[C@H]3CC[C@H](Nc4nc5cc(OC(F)F)ccn5n4)C3)nc1)C2` [Example 128], for which the IC50 came to 8.5 nM.

As to `O=C1c2c(F)ccnc2CN1c1ccc(N[C@H]2CC[C@H](Nc3nc4cc(OC(F)F)ccn4n3)C2)nc1` [Example 135], the IC50 worked out at 5.4 nM.

`N#Cc1cnc2c(c1)C(=O)N(c1ccc(N[C@H]3CC[C@H](Nc4nc5cc(F)ccn5n4)C3)nc1)C2` [Example 137] registered a 50% inhibitory concentration (IC50) of 15.9 nM.

In the case of `O=C1c2ccc(O)nc2CN1c1ccc(N[C@H]2CC[C@H](Nc3nc4cc(OC(F)F)ccn4n3)C2)nc1` [Example 138], the concentration for half-maximal inhibition (IC50) came to 8.8 nM.

In turn, `O=C1c2nc(O)ccc2CN1c1ccc(N[C@H]2CC[C@H](Nc3nc4cc(C(F)(F)F)ccn4n3)C2)nc1` [Example 139] showed a half-maximal inhibitory concentration (IC50) of 36.3 nM.

As for `Cc1cc(N[C@H]2CC[C@H](Nc3nc4cc(C(F)(F)F)ccn4n3)C2)ncc1N1Cc2nc(O)ccc2C1=O` [Example 144], the 50% inhibitory concentration (IC50) came out at 15.6 nM.

Consider `O=C1c2cccnc2CN1c1cnc(N[C@H]2CC[C@H](Nc3nc4cc(OC(F)F)ccn4n3)C2)c(F)c1` [Example 152], for which the IC50 is 6.7 nM.

Turning to `O=C1c2cc(F)cnc2CN1c1cnc(N[C@H]2CC[C@H](Nc3nc4cc(OC(F)F)ccn4n3)C2)c(F)c1` [Example 158], the IC50 is 16 nM.

Molecule `Cc1cc2c(cn1)CN(c1cnc(N[C@H]3CC[C@H](Nc4nc5cc(OC(F)F)ccn5n4)C3)c(F)c1)C2=O` [Example 160] gave an IC50 of 7.7 nM.

Molecule `O=C1c2ncccc2CN1c1cnc(N[C@H]2CC[C@H](Nc3nc4cc(C5CC5)ccn4n3)C2)c(F)c1` [Example 166] came in with an IC50 of 7.9 nM.

As for `CC(C)(O)c1ccn2nc(N[C@H]3CC[C@H](Nc4ncc(N5Cc6cccnc6C5=O)cc4F)C3)nc2c1` [Example 168], the IC50 is 10.6 nM.

In turn, `COc1cc(N2Cc3cccnc3C2=O)cnc1N[C@H]1CC[C@H](Nc2nc3cc(C(F)(F)F)ccn3n2)C1` [Example 170] displayed an IC50 of 13.3 nM.

In the case of `Cc1nc(N[C@H]2CC[C@H](Nc3nc4cc(C(F)(F)F)ccn4n3)C2)ccc1N1Cc2cccnc2C1=O` [Example 176], the IC50 is 9.08 nM.

On to `CC(C)(O)c1cccn(-c2cnc(N[C@H]3CC[C@H](Nc4nc5cc(C(F)(F)F)ccn5n4)C3)c(F)c2)c1=O` [Example 182], for which the IC50 stood at 29.3 nM.

Consider `Cc1cc2c(cn1)CN(c1cnc(N[C@H]3CC[C@H](Nc4nc5cc(F)ccn5n4)C3)c(F)c1)C2=O` [Example 190], for which the IC50 turned out to be 8.5 nM.

In turn, `O=c1[nH]cc(-c2cnc(N[C@H]3CC[C@H](Nc4nc5cc(C(F)(F)F)ccn5n4)C3)c(F)c2)c(=O)[nH]1` [Example 195] returned a half-inhibitory concentration (IC50) of 9.6 nM.

In the case of `CC(C)(O)c1cnc2c(c1)CN(c1cnc(N[C@H]3CC[C@H](Nc4nc5cc(F)ccn5n4)C3)c(F)c1)C2=O` [Example 196], the IC50 stood at 8.7 nM.

`CC(C)(O)c1ccnc2c1CN(c1cnc(N[C@H]3CC[C@H](Nc4nc5cc(F)ccn5n4)C3)c(F)c1)C2=O` [Example 197] yielded a half-maximal inhibitory concentration (IC50) of 7.5 nM.

Molecule `O=C1c2nccn2CCN1c1cnc(N[C@H]2CC[C@H](Nc3nc4cc(C(F)(F)F)ccn4n3)C2)c(F)c1` [Example 213] showed an IC50 of 9.5 nM.

In turn, `Cc1ccn2nc(N[C@H]3CC[C@H](Nc4ncc(N5Cc6ncccc6C5=O)cc4F)C3)nc2c1` [Example 223] gave a concentration for half-maximal inhibition (IC50) of 7.2 nM.

`Cc1ccn2nc(N[C@H]3CC[C@H](Nc4ncc(-n5ccccc5=O)cc4F)C3)nc2c1` [Example 224] returned a half-inhibitory concentration (IC50) of 8.5 nM.

Consider `Cc1ccn2nc(N[C@H]3CC[C@H](Nc4ncc(-n5ccc(O)nc5=O)cc4F)C3)nc2c1` [Example 225], for which the IC50 is 8.6 nM.

For `Cc1ccn2nc(N[C@H]3CC[C@H](Nc4ncc(N5CCn6nccc6C5=O)cc4F)C3)nc2c1` [Example 226], the IC50 worked out at 7.1 nM.

The molecule `Cc1nc(N[C@H]2CC[C@H](Nc3nc4cc(C(F)(F)F)ccn4n3)C2)c(F)cc1N1CCn2nccc2C1=O` [Example 238] had an IC50 of 8 nM.

As usually defined, the IC50 is the concentration that inhibits the measured activity by half.
